Reference: ChEMBL document CHEMBL5113500, “New brefeldin A-cinnamic acid ester derivatives as potential antitumor agents: Design, synthesis and biological evaluation” (Eur J Med Chem, 2022)

Columns and labels:
[1] = Selectivity index, ratio of IC50 for human L02 cells to IC50 for human HepG2 cells; format: toxicity; conditions: L02 cells and HepG2 cells, read-out: Ratio IC50
HepG2 = test: Induction of apoptosis in human HepG2 cells assessed as late apoptotic cells at 0.8 uM measured after 48 hrs by Annexin V-FITC/propidium iodide staining based flow cytometry (reference value: 1.66%); format: functional
[2] = Acute toxicity in ICR mouse assessed as change in urea level at 100 mg/kg, ip measured after 6 days; format: organism-based; conditions: in vivo, 144 h, time 6 day

## C[C@H]1CCC/C=C/[C@@H]2C[C@H](O)C[C@H]2[C@H](OC(=O)/C=C/c2ccc(N(C)C)cc2)/C=C/C(=O)O1
[1]
  selectivity ratio: 9.69
HepG2
  Activity: 4.24%
[2]
  Activity: Non-Toxic
